Data set [1] has as its target CT-L activity of purified 20S proteasome (Homo sapiens, UniProt P20618+P28074). The data set can be described thus: in vitro CT-L activity of purified 20S proteasome. It counts as biochemical. To be noted: for inhibition at 10 µM: Table 5, @ 10 μM, read-out: Screening Results (% Inhibition @ 10 μM) Chymotrypsin-like.
Data set [2] concerns the target T1, CT-L activity in human breast cancer MDA-MB-468 cells (Homo sapiens, UniProt P20618+P28074).
T1 construct: endogenous in cells; host or cells: MDA-MB-468
The data set can be described thus: whole cell CT-L activity in MDA-MB-468 cells. It counts as cell-based.

The target in data set [3] is T2, T-L activity in MDA-MB-468 cells (Homo sapiens, UniProt Q99436).
T2 construct: endogenous in cells; host or cells: MDA-MB-468
The data set can be described thus: T-L activity in MDA-MB-468 cells. It counts as cell-based. The conditions noted are these: MDA-MB-468, within 10 min.

Data set [4] concerns the target T3, PGPH activity in MDA-MB-468 cells (Homo sapiens, UniProt P28072).
T3 construct: endogenous in cells; host or cells: MDA-MB-468
The data set can be described thus: PGPH activity in MDA-MB-468 cells. The conditions noted are these: MDA-MB-468, within 10 min. It counts as cell-based.

The subject of data set [5] is proteasome substrates p27, Bax and IKB. The data set is described as follows: Western blot, accumulation of proteasome substrates. It counts as cell-based. On the technique in general: A western blot detects proteins with antibodies after separation by electrophoresis.
Data set [6] concerns MDA-MB-468 and HCT-116 cells. The data set is described as follows: Western blot for cleaved caspase-3 and cleaved PARP (apoptosis). To be noted: 48 h or 24 h. Format: cell-based, human. Here is the method: FIG. 17 is a blot showing the apoptotic potential of PI-1833 and PI-1840. Exponentially growing human breast cancer cells MDA-MB-468 and colon cancer cells HCT-116 were treated with different concentrations of PI-1833 or PI-1840 for 48 h or 24 h, followed by WB analysis for cleaved caspase-3 and cleaved PARP.

A further data set deals with MDA-MB-468. The data set can be described thus: MTT assay, proliferation and viability. It counts as cell-based. To be noted: Homo sapiens, MDA-MB-468, WT K-Ras. (Tetrazolium assays rely on reduction of a dye to a coloured formazan, in cell work by metabolically active cells.)
A further data set relates to MDA-MB-231. The data set is described as follows: MTT assay, proliferation and viability. Format: cell-based. The conditions noted are these: Homo sapiens, MDA-MB-231, mut K-Ras.
In a further data set the test system is HCT-116. The data set is described as follows: MTT assay, proliferation and viability. The conditions noted are these: Homo sapiens, HCT-116, mut K-Ras. Format: cell-based.
Another data set has as its system HCT-116-p53^−/−. The data set is described as follows: MTT assay, proliferation and viability. Format: cell-based.
Another data set concerns HCT-116-HKH2. The data set is described as follows: MTT assay, proliferation and viability. The conditions noted are these: HCT-116-HKH2, K-Ras^−/−. It counts as cell-based.
The test system of the next data set is DU-145. The data set can be described thus: MTT assay, proliferation and viability. The conditions noted are these: Homo sapiens, DU-145, Bax^−/−. It counts as cell-based.
The next data set relates to LNCaP. The data set is described as follows: MTT assay, proliferation and viability. It counts as cell-based. The conditions noted are these: Homo sapiens, Bax^+/+.
The subject of a further data set is PC3. The data set is described as follows: MTT assay, proliferation and viability. Format: cell-based. To be noted: Homo sapiens, PC-3.
Another data set relates to RPMI-8226. The data set can be described thus: MTT assay, proliferation and viability. It counts as cell-based. The conditions noted are these: Homo sapiens.
Another data set relates to Colo357. The data set can be described thus: MTT assay, proliferation and viability. Format: cell-based. To be noted: Homo sapiens, COLO357, 96 h.
For another data set, the system named is RX7-397. The data set can be described thus: MTT assay, proliferation and viability. To be noted: RX7-397, 96 h. Format: cell-based.
For another data set, the system named is MCF-10A. The data set is described as follows: MTT assay, proliferation and viability. It counts as cell-based. The conditions noted are these: Homo sapiens, normal/immortalized, 72 h.
Setting [7] is: Table 1, read-out: IC50 (μM) Chymotrypsin-like activity.
The mark [8] stands for this setting: 72 h, read-out: 72 h (MTT assay).
Setting [9] is: 96 h, read-out: 96 h (MTT assay).
Setting [10] is: WT p53, 72 h, read-out: 72 h (MTT assay).
[11] abbreviates: WT p53, 96 h, read-out: 96 h (MTT assay).
Setting [12] is: Table 5, read-out: IC50 (μM) Chymotrypsin-like.

Where “and” joins values, the source holds several entries; their conditions need not be identical. Identical values can stand only once. Entries after “also recorded” stand apart in the source; their conditions may differ. Like-named read-outs stand apart in the source and are kept apart here.

Turning to `CC(C)N(Cc1nc(-c2ccccc2)no1)C(=O)COc1ccc(C(=O)O)cc1` [11t, 4-(2-(Isopropyl((3-phenyl-1,2,4-oxadiazol-5-yl)methyl)amino)-2-oxoethoxy)benzoic acid], the melting point – broadly, the temperature of the solid-liquid transition – was 211.3 to 213.8 °C. In addition, the IC50 in [1] (setting [7]) is 27.8 ± 20.8 µM. Also, in data set [1] (read-out: IC50, in vitro CT-L), the IC50 turned out to be 27 µM.
Turning to `Cc1ccc(OCC(=O)N(Cc2nc(-c3ccc(C)cc3)no2)C(C)C)cc1` [compound 1, N-Isopropyl-N-((3-p-tolyl-1,2,4-oxadiazol-5-yl)methyl)-2-(p-tolyloxy)acetamide], the IC50 was 0.63 ± 0.35 µM in data set [1] (setting [7]); 0.63 ± 0.35 µM in data set [1] (Table 2, read-out: IC50 (μM) Chymotrypsin-like activity); 0.716 ± 0.27 µM in data set [1] (Table 7, 20S CT-L proteasome activity, read-out: IC50 (μM) CT-L); 0.65 ± 0.39 µM in [1] (read-out: IC50, in vitro CT-L); 1.1 µM and 1 µM in [2] (MDA-MB-468 breast cancer cells, read-out: whole cell IC50 activity).
Turning to `CCCc1ccc(OCC(=O)N(Cc2nc(-c3cccnc3)no2)C(C)C)cc1` [11ad], the “fold improved CT-L activity” value in data set [1] (compared to the hit 1 (PI-1833)) came out at 20 fold. Also, the IC50 in data set [1] (read-out: IC50, in vitro CT-L) worked out at 0.032 µM; with MDA-MB-468 (mut p53, 72 h, read-out: 72 h (MTT assay)) it was 25.4 ± 5.83 µM; in the data set on MDA-MB-468 (mut p53, 96 h, read-out: 96 h (MTT assay)), 11.6 µM; in the data set on MDA-MB-231 (setting [8]), 133 ± 21.6 µM; in the data set on MDA-MB-231 (setting [9]), 106 µM; with HCT-116 (setting [10]), 40.9 ± 15.8 µM. The IC50 in the data set with HCT-116 (setting [11]) turned out to be 35.3 µM; in the data set on HCT-116-p53^−/− (setting [8]), 45.9 ± 19.9 µM; in the data set with HCT-116-p53^−/− (setting [9]), 31.1 µM; in the data set with HCT-116-HKH2 (setting [10]) it was 43 ± 9.73 µM; with HCT-116-HKH2 (setting [11]), 12.8 µM; in the data set with DU-145 (setting [8]), 123 ± 25.2 µM. The IC50 in the data set on DU-145 (setting [9]) was found to be 159 µM; in the data set with LNCaP (setting [8]) it was 49 ± 6.81 µM; in the data set on LNCaP (setting [9]), 17.2 µM; with PC3 (PC3, 72 h, read-out: 72 h (MTT assay)), 92.7 µM; with PC3 (PC3, 96 h, read-out: 96 h (MTT assay)), 62.5 µM; in the data set on RPMI-8226 (RPMI-8226, 72 h, read-out: 72 h (MTT assay)), 35.9 ± 11.2 µM. In addition, the IC50 in the data set on RPMI-8226 (RPMI-8226, 96 h, read-out: 96 h (MTT assay)) was found to be 34.7 µM; with Colo357 it was 95.7 µM; in the data set with RX7-397, 56.9 µM; in the data set on MCF-10A, 63.1 ± 7.06 µM. Also, in data set [2] (MDA-MB-468, listed as PI-1840), the “inhibition of CT-L activity in cells, in words” value is recorded as “inhibits CT-L; also recorded: more potent at inhibiting CT-L activity in human breast cancer”. Besides, in data set [3], the “inhibition of T-L activity in cells, in words” value was “not T-L or PGPH”. Also, in data set [4], the “inhibition of PGPH activity in cells, in words” value is reported as “not T-L or PGPH”. In addition, the “accumulation of proteasome substrates p27, Bax and IKB, in words” value in [5] was “more potent at accumulating the proteasome substrates p27, Bax and IKB”. Also, in [6], the “induction of apoptosis, in words” value is “efficiently inducing apoptosis”.
Turning to `Cc1ccc(OCC(=O)N(Cc2nc(-c3ccc(C)cc3)no2)C(C)C)cc1` [drawing 107], the IC50 in [1] (setting [12]) was found to be 0.63 ± 0.35 µM; in [2] (Table 5, MDA-MB-468, read-out: Whole cell IC50 (μM) Chymotrypsin-like) it was 1.1 µM.
On to `CC(C)N(Cc1nc(-c2cccnc2)no1)C(=O)COc1ccc(O)cc1` [drawing 155], for which the inhibition (usually the change of the read-out against control, counted positive when it falls) at 10 µM in data set [1] is 78.4 ± 6.33%. In [1] (setting [12]), the IC50 came to 0.98 ± 0.5 µM.
Consider `CC(C)N(Cc1nc(-c2ccccc2)no1)C(=O)COc1ccc(C(=O)OC(C)(C)C)cc1` [drawing 141], for which the inhibition at 10 µM in data set [1] was -62 ± 26.3%.

The record behind these values is US9878999B2, “Proteasome chymotrypsin-like inhibition using PI-1833 analogs” (H. Lee Moffitt Cancer Center and Research Institute, Inc., priority 2011, dated 2018).
